Measurements as given in ChEMBL document CHEMBL3044782, “Structure-activity relationships of derivatives of fusapyrone, an antifungal metabolite of Fusarium semitectum” (J Agric Food Chem, 2004).
In brackets after ≈: the same amount, converted by molar mass. Activity calls are given as the source filed them. The calls are words filed in the database; no cut-off is given here.

Legend:
Aspergillus parasiticus [1] = experiment: Antifungal activity against Aspergillus parasiticus Speare ITEM-11 after 72 hr by broth dilution method; format: functional; settings: Speare ITEM-11, 72 h
Aspergillus parasiticus [2] = experiment: Antifungal activity against Aspergillus parasiticus Speare ITEM-11 after 24 hr by broth dilution method; format: functional; settings: Speare ITEM-11, 24 h
Botrytis cinerea [3] = experiment: Antifungal activity against Botryotinia fuckeliana ITEM-966 after 24 hr by broth dilution method; format: functional; settings: ITEM-966, 24 h
Aspergillus parasiticus [4] = experiment: Antifungal activity against Aspergillus parasiticus Speare ITEM-11 after 48 hr by broth dilution method; format: functional; settings: Speare ITEM-11, 48 h
[5] = tested on: Penicillium brevicompactum; experiment: Antifungal activity against Penicillium brevicompactum Dierckx ITEM-449 after 72 hr by broth dilution method; format: functional; settings: Dierckx ITEM-449, 72 h
[6] = tested on: Penicillium brevicompactum; experiment: Antifungal activity against Penicillium brevicompactum Dierckx ITEM-449 after 24 hr by broth dilution method; format: functional; settings: Dierckx ITEM-449, 24 h
Botrytis cinerea [7] = experiment: Antifungal activity against Botryotinia fuckeliana ITEM-966 after 72 hr by broth dilution method; format: functional; settings: ITEM-966, 72 h
Rhodotorula glutinis = experiment: Antifungal activity against Rhodotorula glutinis assessed as growth inhibition at 50 ug/ml after 24 to 72 hr by broth dilution method; format: functional, organism-based
[8] = Toxicity against Artemia salina (brine shrimp) larvae after 24 hr; format: organism-based; settings: in vivo
Botrytis cinerea [9] = experiment: Antifungal activity against Botryotinia fuckeliana ITEM-966 after 48 hr by broth dilution method; format: functional; settings: ITEM-966, 48 h
[10] = tested on: Meyerozyma guilliermondii; experiment: Antifungal activity against Meyerozyma guilliermondii assessed as growth inhibition at 50 ug/ml after 24 to 72 hr by broth dilution method; format: functional, organism-based
[11] = tested on: Penicillium brevicompactum; experiment: Antifungal activity against Penicillium brevicompactum Dierckx ITEM-449 after 48 hr by broth dilution method; format: functional; settings: Dierckx ITEM-449, 48 h

Row | Structure (SMILES) | MIC (Aspergillus parasiticus [1]) [µg/mL] | MIC (Aspergillus parasiticus [2]) [µg/mL] | MIC (Botrytis cinerea [3]) [µg/mL] | MIC (Aspergillus parasiticus [4]) [µg/mL] | MIC [5] [µg/mL] | MIC [6] [µg/mL] | MIC (Botrytis cinerea [7]) [µg/mL] | growth inhibition (GI) (Rhodotorula glutinis) | LC50 at 24 h [8] [µM] | MIC (Botrytis cinerea [9]) [µg/mL] | growth inhibition (GI) [10] | MIC [11] [µg/mL]
1 | CCCCCCC(C)C/C(C)=C\C(C)/C=C(C)/C=C/C(O)C(C)(C)c1cc(O)c([C@@H]2O[C@H](CO)C[C@H](O)[C@H]2O)c(=O)o1 (stereo partly specified) [DEOXYNEOFUSAPYRONE] | 0.78 (≈ 1.32 µM) | 0.78 (≈ 1.32 µM) | 0.78 (≈ 1.32 µM) | 0.78 (≈ 1.32 µM) | 1.56 (≈ 2.64 µM) | 0.78 (≈ 1.32 µM) | 1.56 (≈ 2.64 µM) | inactive | 37.1 | 1.56 (≈ 2.64 µM) | inactive | 1.56 (≈ 2.64 µM)
2 | CCCCCCC(C)CC(C)CC(CO)CC(C)CCC(O)C(C)(C)c1cc(O)c([C@@H]2O[C@H](CO)C[C@H](O)[C@H]2O)c(=O)o1 (stereo partly specified) |  |  | 50 (≈ 81.6 µM) |  |  |  | 50 (≈ 81.6 µM) | inactive |  | 50 (≈ 81.6 µM) | inactive | 
3 | CCCCCCC(C)C/C(C)=C\C(/C=C(C)/C=C/C(O)C(C)(C)c1cc(OC)c([C@@H]2O[C@H](CO)C[C@H](O)[C@H]2O)c(=O)o1)CO (stereo partly specified) |  |  | 25 (≈ 40.3 µM) |  |  |  | 50 (≈ 80.5 µM) | inactive |  | 50 (≈ 80.5 µM) | inactive | 
4 | CCCCNC(=O)n1c(NC(=O)OC)nc2ccccc21 [BENOMYL] | > 25 | > 25 | 0.19 (≈ 0.654 µM) | > 25 | > 25 | > 25 | 0.19 (≈ 0.654 µM) |  |  | 0.19 (≈ 0.654 µM) |  | > 25
5 | CCCCCCC(C)C/C(C)=C\C(/C=C(C)/C=C/C(OC(C)=O)C(C)(C)c1cc(OC)c([C@@H]2O[C@H](COC(C)=O)C[C@H](OC(C)=O)[C@H]2OC(C)=O)c(=O)o1)COC(C)=O (stereo partly specified) |  |  |  |  |  |  |  | inactive | 46.1 |  | inactive | 
6 | Nc1c(Cl)cc([N+](=O)[O-])cc1Cl [ALLISAN] | > 25 | > 25 | 3.12 (≈ 15.1 µM) | > 25 | > 25 | 12.5 (≈ 60.4 µM) | 6.25 (≈ 30.2 µM) |  |  | 6.25 (≈ 30.2 µM) |  | 25 (≈ 121 µM)
7 | CCCCCCC(C)C/C(C)=C\C(CO)CC(C)CCC(O)C(C)(C)c1cc(O)c([C@@H]2O[C@H](CO)C[C@H](O)[C@H]2O)c(=O)o1 (stereo partly specified) |  |  | 50 (≈ 81.9 µM) |  |  |  | 50 (≈ 81.9 µM) | inactive |  | 50 (≈ 81.9 µM) | inactive | 
8 | CCCCCCC(C)C/C(C)=C\C(/C=C(C)/C=C/C(OC(C)=O)C(C)(C)c1cc(=O)c([C@@H]2O[C@H](COC(C)=O)C[C@H](OC(C)=O)[C@H]2OC(C)=O)c(OC)o1)COC(C)=O (stereo partly specified) |  |  |  |  |  |  |  | inactive | 51.9 |  | inactive | 
9 | CCCCCCC(C)C/C(C)=C\C(/C=C(C)/C=C/C(O)C(C)(C)c1cc(O)c(CCO)c(=O)o1)CO (stereo unspecified) |  |  |  |  |  |  |  | inactive |  |  | inactive | 
10 | CCCCCCC(C)C/C(C)=C\C(C)/C=C(C)/C=C/C(OC(C)=O)C(C)(C)c1cc(OC(C)=O)c([C@@H]2O[C@H](COC(C)=O)C[C@H](OC(C)=O)[C@H]2OC(C)=O)c(=O)o1 (stereo partly specified) |  |  |  |  |  |  |  | inactive | 39.7 |  | inactive | 
11 | CCCCCCC(C)C/C(C)=C\C(/C=C(C)/C=C/C(O)C(C)(C)c1cc(O)c([C@@H]2O[C@H](CO)C[C@H](O)[C@H]2O)c(=O)o1)CO (stereo partly specified) [Fusapyrone] | 12.5 (≈ 20.6 µM) | 6.25 (≈ 10.3 µM) | 1.56 (≈ 2.57 µM) | 6.25 (≈ 10.3 µM) | 6.25 (≈ 10.3 µM) | 0.78 (≈ 1.29 µM) | 6.25 (≈ 10.3 µM) | inactive | > 200 | 3.12 (≈ 5.14 µM) | inactive | 3.12 (≈ 5.14 µM)
12 | CCCCCCC(C)C/C(C)=C\C(/C=C(C)/C=C/C(OC(C)=O)C(C)(C)c1cc(OC(C)=O)c([C@@H]2O[C@H](COC(C)=O)C[C@H](OC(C)=O)[C@H]2OC(C)=O)c(=O)o1)COC(C)=O (stereo partly specified) |  |  |  |  |  |  |  | inactive | 85.6 |  | inactive | 
